Series [1] deals with S. aureus AgrC in group-I (Staphylococcus aureus, UniProt A0A0H2XKA3). The series is described as follows: AgrC inhibition YFP reporter gene assay, S. aureus group-I (AH1677). It is filed as cell-based. Particulars: for AgrC activity, preliminary screening: 10 μM where stated, YFP fluorescence relative to 1% DMSO control. On the procedure:
(§1) Reporter Gene Assays: The peptidomimetics were assayed for AgrC I-IV inhibition using the four YFP reporter strains listed in Table 1. Peptide stock solutions were diluted with DMSO in serial dilutions, and 2 μL of the diluted solution was added to each of the wells in a black, clear-bottom 96-well microtiter plate (Costar). An overnight culture of S. aureus YFP strain (Table 1) was diluted 1:50 with fresh BHI (pH 7.35). A […] of diluted culture was added to each well of the microtiter plate containing peptide (resulting in a 1% DMSO solution). Plates were incubated at 37° C. with shaking at 200 rpm for 24 h. Fluorescence (excitation 500 nm/emission 540 nm) and optical density at 600 nm (OD600) of each well were then recorded using a BioTek Synergy 2 plate reader. […] Full dose response curves are provided in Figures S3A-D, S4A-D, S5A-D, S6A-D and S7A-F.
(§2) A first compound library of AIP mimetics was screened for AgrC modulatory activity in all four groups of S. aureus using strains containing yfp reporter. These strains are summarized in Table 1, and include the multidrug-resistant strain USA300 LAC.[17] In these S. aureus reporters, binding of the native AIP to AgrC activates YFP production and can be measured using fluorescence. Thus, compounds capable of inhibiting native AIP binding produce a reduction in fluorescence. Preliminary compound screening was performed at 10 μM in each strain; the full results of preliminary screening are shown in FIGS. 4A-4D. Key findings from these initial screens are summarized here. To simplify the discussion, the full library will be described as three smaller sub-libraries. In the first sub-library (termed nxLX), there is a linker with n=x methylenes, residue 3 is Leu, and residue 4 (X) is Leu, Ile, or Phe (FIG. 2A). The second and third sub-libraries (nxIX and nxFX) are identical to the first sub-library except that there is an Ile or Phe at residue 3, respectively.
A general note: A reporter such as luciferase makes a cellular process visible.

The target in series [2] is S. aureus AgrC in group-II (Staphylococcus aureus, UniProt O33587). The series is described as follows: AgrC inhibition YFP reporter gene assay, S. aureus group-II (AH430). Format: cell-based. As to conditions: for AgrC activity, preliminary screening: 10 μM where stated, YFP fluorescence relative to 1% DMSO control. On the procedure:
as §1, §2

The target in series [3] is S. aureus AgrC in group-III (Staphylococcus aureus, UniProt O33590). Put plainly: AgrC inhibition YFP reporter gene assay, S. aureus group-III (AH1747). It is filed as cell-based. Particulars: for AgrC activity, preliminary screening: 10 μM where stated, YFP fluorescence relative to 1% DMSO control. On the procedure:
as §1, §2

The target in series [4] is S. aureus AgrC in group-IV (Staphylococcus aureus, UniProt Q309Z2). The series is described as follows: AgrC inhibition YFP reporter gene assay, S. aureus group-IV (AH1872). Format: cell-based. Particulars: for AgrC activity, preliminary screening: 10 μM where stated, YFP fluorescence relative to 1% DMSO control. On the procedure: as §1, §2
A short description of the next series: Solubility in water. It is filed as physicochemical.
Where [5] appears, read: read-out: IC50 Group-I, Table 3, against S. aureus AgrC.
[6] abbreviates: read-out: IC50 Group-II, Table 3, against S. aureus AgrC.
The mark [7] stands for this setting: read-out: IC50 Group-III, Table 3, against S. aureus AgrC.
The mark [8] stands for this setting: read-out: IC50 Group-IV, Table 3, against S. aureus AgrC.
Setting [9] is: read-out: Group-I IC50, 95% CI, YFP reporter strain, 24 h, value (95% CI).
[10] abbreviates: read-out: Group-II IC50, 95% CI, YFP reporter strain, 24 h, value (95% CI).
[11] abbreviates: read-out: Group-III IC50, 95% CI, YFP reporter strain, 24 h, value (95% CI).
Setting [12] is: read-out: Group-IV IC50, 95% CI, YFP reporter strain, 24 h, value (95% CI).

As a reminder, the IC50 is the concentration that inhibits the measured activity by half.

The structures appear in SMILES notation. Entries after “also recorded” stand apart in the source; their conditions may differ. Where two headings read alike, the source gives them in different places. Positions of bridges follow the written chain, without caps; N, C: chain ends. Non-standard residues stand in square brackets, D forms with d. Residues, ends and D or L forms follow the SMILES beside them. Phe(3-Cl) = N[C@@H](Cc1cccc(Cl)c1)C(=O)O; Phe(4-Cl) = N[C@@H](Cc1ccc(Cl)cc1)C(=O)O; Phe(3-F) = N[C@@H](Cc1cccc(F)c1)C(=O)O; Cha = N[C@@H](CC1CCCCC1)C(=O)O; AEEA = NCCOCCOCC(=O)O; Dap = NC[CH](N)C(=O)O; Aoc = NCCCCCCCC(=O)O Where only a bound is given, the exact number is not on record here.

With `CC(=O)N[C@H]1CSC(=O)[C@H](Cc2cccc(F)c2)NC(=O)[C@H](CC2CCCCC2)NC(=O)CCCCCCCNC1=O` [n7Cha3fF] (Ac-C[Aoc][Cha][Phe(3-F)]; thioester 1-C), the IC50 stood at 429 nM in series [1] (setting [5]), 2340 nM in series [2] (setting [6]), 19 nM in series [3] (setting [7]) and 1.16 µM in series [4] (setting [8]).

Consider `CC(=O)NC1CNC(=O)C(Cc2ccccc2)NC(=O)C(Cc2ccccc2)NC(=O)CCCCCCCNC1=O` (stereo not shown) [n7FF amide] (Ac-[Dap][Aoc]FF; lactam 1-C; configuration not given here), for which the “AgrC activity, preliminary screening” value in series [1] (group-I) is on record as “far less active”; in series [2] (group-II) it was “minimal levels”; in series [3] (group-III) it was “minimal levels”; in series [4] (group-IV), “virtually no inhibition”. Further, the IC50 in series [1] (setting [9]) is 3940 nM; in series [2] (setting [10]) it was 2200 nM; in series [3] (setting [11]), 573 nM. Also, the “water solubility” value in the series “Solubility in water” is listed as “markedly more soluble in water than their parent thiolactones”.

`CC(=O)N[C@H]1CSC(=O)[C@H](Cc2ccccc2)NC(=O)[C@H](Cc2ccccc2)NC(=O)CCCCCCCNC1=O` [n7FF] (Ac-C[Aoc]FF; thioester 1-C): the “IC50 relative to that of t-AIP-II” value in series [1] (group-I), in series [2] (group-II), in series [3] (group-III) and in series [4] (group-IV) was 3-7 fold throughout. Besides, the “AgrC activity, preliminary screening” value in series [1] (group-I), in series [2] (group-II), in series [3] (group-III) and in series [4] (group-IV) was “minimal levels” each time. Also, the IC50 in series [1] (setting [9]) is 340 nM; in series [2] (setting [10]) it was 495 nM; in series [3] (setting [11]), 34.8 nM; in series [4] (setting [12]), 0.985 µM. The “water solubility” value in “Solubility in water” is given as “relatively low water solubilities; also recorded: less soluble than AIP-III D4A in water”.

With `CC(=O)N[C@H]1CSC(=O)[C@H](Cc2cccc(F)c2)NC(=O)[C@H](CC2CCCCC2)NC(=O)COCCOCCNC1=O` [n7OCha3fF] (Ac-C[AEEA][Cha][Phe(3-F)]; thioester 1-C), the IC50 in series [1] (setting [5]) stood at 109 nM; in series [2] (setting [6]), 1380 nM; in series [3] (setting [7]) it was 35 nM; in series [4] (setting [8]), 0.597 µM.

As for `CC(=O)N[C@H]1CSC(=O)[C@H](Cc2ccccc2)NC(=O)[C@H](CC2CCCCC2)NC(=O)COCCOCCNC1=O` [n7OChaF] (Ac-C[AEEA][Cha]F; thioester 1-C), the IC50 in series [1] (setting [5]) stood at 998 nM; in series [2] (setting [6]) it was 790 nM; in series [3] (setting [7]), 205 nM; in series [4] (setting [8]), 1.08 µM.

`CC(=O)N[C@H]1CSC(=O)[C@H](Cc2cccc(Cl)c2)NC(=O)[C@H](Cc2ccccc2)NC(=O)COCCOCCNC1=O` [n7OF3clF] (Ac-C[AEEA]F[Phe(3-Cl)]; thioester 1-C): the IC50 in series [1] (setting [5]) was determined as 225 nM; in series [2] (setting [6]), 217 nM; in series [3] (setting [7]) it was 1140 nM.

Consider `CC(=O)N[C@H]1CSC(=O)[C@H](Cc2cccc(F)c2)NC(=O)[C@H](Cc2ccccc2)NC(=O)COCCOCCNC1=O` [n7OF3fF] (Ac-C[AEEA]F[Phe(3-F)]; thioester 1-C), for which the IC50 in series [1] (setting [5]) was 40 nM; in series [2] (setting [6]), 1210 nM; in series [3] (setting [7]) it was 171 nM; in series [4] (setting [8]) it was greater than 5 µM.

For `CC(=O)N[C@H]1CSC(=O)[C@H](Cc2ccc(Cl)cc2)NC(=O)[C@H](Cc2ccccc2)NC(=O)COCCOCCNC1=O` [n7OF4clF] (Ac-C[AEEA]F[Phe(4-Cl)]; thioester 1-C), the IC50 in series [1] (setting [5]) was 2590 nM; in series [2] (setting [6]) it was 113 nM; in series [3] (setting [7]), 2480 nM; in series [4] (setting [8]) it was greater than 5 µM.

As to `CC(=O)NC1CNC(=O)C(Cc2ccccc2)NC(=O)C(Cc2ccccc2)NC(=O)COCCOCCNC1=O` (stereo not shown) [n7OFF amide] (Ac-[Dap][AEEA]FF; lactam 1-C; configuration not given here), the “AgrC activity, preliminary screening” value in series [1] (group-I), in series [2] (group-II), in series [3] (group-III) and in series [4] (group-IV) was “no significant activity” each time. Moreover, the IC50 was greater than 10000 nM in series [1] (setting [9]), greater than 10000 nM in series [2] (setting [10]), greater than 10000 nM in series [3] (setting [11]) and greater than 10 µM in series [4] (setting [12]). Also, the “water solubility” value in “Solubility in water” is “markedly more soluble in water than their parent thiolactones”.

For `CC(=O)N[C@H]1CSC(=O)[C@H](Cc2ccccc2)NC(=O)[C@H](Cc2ccccc2)NC(=O)COCCOCCNC1=O` [n7OFF] (Ac-C[AEEA]FF; thioester 1-C), in series [1] (group-I), the “more potent than n7FF” value is recorded as roughly 2 fold. In addition, the “AgrC activity, preliminary screening” value is “approximately as active as t-AIP-II, n7FF, and n8FF” in series [1] (group-I); “approximately as active as t-AIP-II, n7FF, and n8FF” in series [2] (group-II); “modestly active” in series [3] (group-III); “modestly active” in series [4] (group-IV). Besides, the IC50 in series [1] (setting [9]) worked out at 181 nM; in series [1] (setting [5]), 181 nM; in series [2] (setting [10]), 583 nM; in series [2] (setting [6]) it was 583 nM; in series [3] (setting [11]), 332 nM; in series [3] (setting [7]) it was 332 nM. Further, the IC50 in series [4] (setting [12]) and in series [4] (setting [8]) was 5.94 µM in each case. For the same molecule, in “Solubility in water”, the “more soluble in water than n7FF” value is listed as “approximately 100 fold”.

With `CC(=O)N[C@H]1CNC(=O)[C@H](Cc2ccccc2)NC(=O)[C@H](Cc2ccccc2)NC(=O)CCCCCCCCNC1=O` [n8FF amide], the “AgrC activity, preliminary screening” value is given as “far less active” in series [1] (group-I), “minimal levels” in series [2] (group-II), “minimal levels” in series [3] (group-III) and “virtually no inhibition” in series [4] (group-IV). Moreover, the IC50 is 4740 nM in series [1] (setting [9]), 1340 nM in series [2] (setting [10]) and 2610 nM in series [3] (setting [11]). Also, in “Solubility in water”, the “water solubility” value is “markedly more soluble in water than their parent thiolactones”.

For `CC(=O)NC1CSC(=O)C(Cc2ccccc2)NC(=O)C(Cc2ccccc2)NC(=O)CCCCCCCCNC1=O` (stereo not shown) [n8FF], the IC50 in series [1] (setting [9]) worked out at 468 nM; in series [2] (setting [10]), 479 nM; in series [3] (setting [11]) it was 125 nM; in series [4] (setting [12]), 3.49 µM. Moreover, the “less potent than n7FF” value in series [3] (group-III) and in series [4] (group-IV) was 4 fold throughout. In addition, the “water solubility” value in the series “Solubility in water” is given as “relatively low water solubilities; also recorded: less soluble than AIP-III D4A in water”.

The values above are taken from US12139464B2, “Simplified structural mimetics of AIPS as quorum sensing inhibitors” (Wisconsin Alumni Research Foundation, priority 2016, dated 2024).
